From ChEMBL document CHEMBL5365438, “2-Substituted 1,5-benzothiazepine-based HDAC inhibitors exert anticancer activities on human solid and acute myeloid leukemia cell lines” (Bioorg Med Chem, 2023)
Calls of active or inactive are those of the source. The rule behind the calls is not given here.

Legend:
Histone deacetylase = assay type: subcellular, Homo sapiens, Nucleus; conditions: hela
Description: Inhibition of HDAC in human HeLa cell nuclear extract using Kac fluorogenic peptide as substrate containing residues 379-382 of p53 by fluorescence assay

Histone deacetylase 1 [1] = target: T1, Histone deacetylase 1 (Homo sapiens, UniProt Q13547); assay: Inhibition of HDAC1 (unknown origin) at 10 uM using fluorogenic peptide as substrate pre-incubated for 15 mins followed by substrate addition incubated for 30 mins by fluorescence assay relative to control; conditions: time 45.0 min
T1 sequence (Q13547 whole entry): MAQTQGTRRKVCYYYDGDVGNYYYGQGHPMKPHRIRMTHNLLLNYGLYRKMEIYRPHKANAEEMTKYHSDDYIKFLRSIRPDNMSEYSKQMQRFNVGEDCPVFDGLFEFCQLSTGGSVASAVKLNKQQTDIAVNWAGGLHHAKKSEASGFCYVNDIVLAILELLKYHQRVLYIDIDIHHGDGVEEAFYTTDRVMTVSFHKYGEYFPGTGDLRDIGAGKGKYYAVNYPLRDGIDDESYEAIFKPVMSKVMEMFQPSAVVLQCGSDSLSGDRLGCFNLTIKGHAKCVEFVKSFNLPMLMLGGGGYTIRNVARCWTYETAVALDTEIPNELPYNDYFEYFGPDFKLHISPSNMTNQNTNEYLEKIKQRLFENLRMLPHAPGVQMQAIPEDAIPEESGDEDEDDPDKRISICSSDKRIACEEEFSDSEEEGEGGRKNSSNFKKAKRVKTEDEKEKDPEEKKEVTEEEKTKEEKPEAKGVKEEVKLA

[2] = target: T2, Protein deacetylase HDAC6 (Homo sapiens) (UniProt Q9UBN7); assay: Inhibition of HDAC6 (unknown origin) at 10 uM using fluorogenic peptide as substrate pre-incubated for 15 mins followed by substrate addition incubated for 30 mins by fluorescence assay; conditions: time 45.0 min
T2 sequence (whole entry): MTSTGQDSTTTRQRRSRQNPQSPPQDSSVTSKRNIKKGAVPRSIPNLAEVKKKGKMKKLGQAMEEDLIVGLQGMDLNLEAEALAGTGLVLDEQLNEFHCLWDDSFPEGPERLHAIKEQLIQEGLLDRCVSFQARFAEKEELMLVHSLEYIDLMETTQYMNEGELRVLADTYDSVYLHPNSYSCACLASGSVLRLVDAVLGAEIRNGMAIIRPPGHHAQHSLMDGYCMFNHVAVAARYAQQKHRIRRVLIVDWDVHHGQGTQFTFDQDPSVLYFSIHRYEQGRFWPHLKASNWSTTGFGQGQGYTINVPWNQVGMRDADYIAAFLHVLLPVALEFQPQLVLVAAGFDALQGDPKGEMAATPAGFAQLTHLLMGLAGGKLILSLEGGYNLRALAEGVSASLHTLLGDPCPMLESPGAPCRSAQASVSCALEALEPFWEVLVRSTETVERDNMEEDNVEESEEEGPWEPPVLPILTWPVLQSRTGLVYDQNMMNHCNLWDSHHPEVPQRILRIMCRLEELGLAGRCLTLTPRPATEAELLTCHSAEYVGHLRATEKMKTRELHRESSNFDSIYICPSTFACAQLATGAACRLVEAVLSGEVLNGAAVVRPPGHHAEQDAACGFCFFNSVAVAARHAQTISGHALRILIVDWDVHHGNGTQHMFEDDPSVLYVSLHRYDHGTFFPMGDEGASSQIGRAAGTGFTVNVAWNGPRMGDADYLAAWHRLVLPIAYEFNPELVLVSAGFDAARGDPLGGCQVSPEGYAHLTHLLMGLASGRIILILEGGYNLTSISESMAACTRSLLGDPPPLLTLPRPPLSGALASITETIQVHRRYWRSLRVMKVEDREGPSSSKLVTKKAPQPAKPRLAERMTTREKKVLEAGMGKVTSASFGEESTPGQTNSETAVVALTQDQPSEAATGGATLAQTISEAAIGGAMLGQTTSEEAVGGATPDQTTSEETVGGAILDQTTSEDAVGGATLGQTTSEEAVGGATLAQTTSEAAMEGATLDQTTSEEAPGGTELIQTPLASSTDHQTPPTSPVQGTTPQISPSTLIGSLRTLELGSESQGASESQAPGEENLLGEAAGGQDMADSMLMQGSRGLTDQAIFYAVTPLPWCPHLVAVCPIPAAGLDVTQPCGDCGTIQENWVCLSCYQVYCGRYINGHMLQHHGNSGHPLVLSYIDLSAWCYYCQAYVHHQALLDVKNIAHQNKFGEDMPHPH

Histone deacetylase 1 [3] = target: T1, Histone deacetylase 1; assay: Inhibition of HDAC1 (unknown origin) using fluorogenic peptide as the substrate containing residues 379-382 of p53 pre-incubated for 15 mins followed by substrate addition incubated for 30 mins by multimode plate reader
U-937 [4] = assay: Cytotoxicity against human U-937 cells assessed as cell death at 1 to 5 uM incubated for 24 hrs by PI staining based FACS analysis relative to control; assay type: functional; conditions: dose 1-5 µM
U-937 [5] = assay: Induction of cell cycle arrest in human U-937 assessed as increase accumulation of cells in G2/M phase at 1 to 5 uM incubated for 24 hrs by FACS analysis; assay type: functional, cell-based; conditions: dose 1-5 µM
HCT-116 [6] = assay: Induction of cell cycle arrest in human HCT-116 assessed as accumulation of cells in G2/M phase at 1 to 5 uM incubated for 24 hrs by FACS analysis relative to SAHA; assay type: functional; conditions: dose 1-5 µM
[7] = target: T3, Histone deacetylase (Homo sapiens) (UniProt Q13547+O15379+Q9UBN7+Q92769+Q9UQL6+Q8WUI4+Q9BY41+Q96DB2+P56524+Q9UKV0+Q969S8); assay: Inhibition of HDAC in human U-937 cells assessed as upregulation of histone H3 acetylation at lysine 14 residue at 1 uM incubated for 24 hrs by immunoblotting analysis; assay type: cell-based
[8] = target: T3, Histone deacetylase (Homo sapiens); assay: Inhibition of HDAC in human U-937 cells assessed as upregulation of histone H3 acetylation at lysine 14 residue at 5 uM incubated for 24 hrs by immunoblotting analysis; assay type: cell-based
[9] = target: T3, Histone deacetylase (Homo sapiens); assay: Inhibition of HDAC in human HCT-116 cells assessed as upregulation of histone H3 acetylation at lysine 14 residue at 1 uM incubated for 24 hrs by immunoblotting analysis; assay type: cell-based
[10] = target: T3, Histone deacetylase (Homo sapiens); assay: Inhibition of HDAC in human U-937 cells assessed as upregulation of acetyl alpha-tubulin level at 5 uM incubated for 24 hrs by immunoblotting analysis; assay type: cell-based
[11] = target: T3, Histone deacetylase (Homo sapiens); assay: Inhibition of HDAC in human HCT-116 cells assessed as upregulation of acetyl alpha-tubulin level at 1 to 5 uM incubated for 24 hrs by immunoblotting analysis; assay type: cell-based; conditions: dose 1-5 µM
HCT-116 [12] = assay: Induction of apoptosis in human HCT-116 cells assessed as increased p21 protein expression level at 1 to 5 uM incubated for 24 hrs by immunoblotting analysis; assay type: functional, cell-based; conditions: dose 1-5 µM
U-937 [13] = assay: Induction of apoptosis in human U-937 cells assessed as increased p21 protein expression level at 1 to 5 uM incubated for 24 hrs by immunoblotting analysis; assay type: functional, cell-based; conditions: dose 1-5 µM
U-937 [14] = assay: Induction of cell cycle arrest in human U-937 assessed as decrease accumulation of cells in G1 phase at 1 to 5 uM incubated for 24 hrs by FACS analysis; assay type: functional, cell-based; conditions: dose 1-5 µM
HCT-116 [15] = assay: Induction of cell cycle arrest in human HCT-116 assessed as decrease accumulation of cells in G1 phase at 1 to 5 uM incubated for 24 hrs by FACS analysis; assay type: functional, cell-based; conditions: dose 1-5 µM
U-937 [16] = assay: Induction of cell cycle arrest in human U-937 assessed as decrease accumulation of cells in S phase at 1 to 5 uM incubated for 24 hrs by FACS analysis; assay type: functional, cell-based; conditions: dose 1-5 µM
HCT-116 [17] = assay: Induction of cell cycle arrest in human HCT-116 assessed as decrease accumulation of cells in S phase at 1 to 5 uM incubated for 24 hrs by FACS analysis; assay type: functional, cell-based; conditions: dose 1-5 µM
HCT-116 [18] = assay: Cytotoxicity against human HCT-116 cells assessed as reduction in cell death at 1 uM incubated for 24 hrs by PI staining based FACS analysis; assay type: functional
U-937 [19] = assay: Cytotoxicity against human U-937 cells assessed as cell death at 5 uM incubated for 24 hrs by PI staining based FACS analysis relative to control; assay type: functional
HCT-116 [20] = assay: Cytotoxicity against human HCT-116 cells assessed as cell death at 5 uM incubated for 24 hrs by PI staining based FACS analysis relative to control; assay type: functional
U-937 [21] = assay: Induction of cell cycle arrest in human U-937 assessed as reduced accumulation of cells in S phase at 1 uM incubated for 24 hrs by FACS analysis; assay type: functional, cell-based
U-937 [22] = assay: Induction of cell cycle arrest in human U-937 assessed as decrease accumulation of cells in G1 phase at 5 uM incubated for 24 hrs by FACS analysis; assay type: functional, cell-based
U-937 [23] = assay: Induction of cell cycle arrest in human U-937 assessed as decrease accumulation of cells in S phase at 5 uM incubated for 24 hrs by FACS analysis; assay type: functional, cell-based
U-937 [24] = assay: Induction of cell cycle arrest in human U-937 assessed as increase accumulation of cells in G2/M phase at 5 uM incubated for 24 hrs by FACS analysis; assay type: functional, cell-based
HCT-116 [25] = assay: Induction of cell cycle arrest in human HCT-116 assessed as accumulation of cells in G2/M phase at 5 uM incubated for 24 hrs by FACS analysis; assay type: functional, cell-based

| Compound | IC50 (Histone deacetylase) [nM] | inhibition (Histone deacetylase 1 [1]) [%] | inhibition [2] [%] | IC50 (Histone deacetylase 1 [3]) [nM] | Activity (U-937 [4]) [%] | Activity (U-937 [5]) | Activity (HCT-116 [6]) | Activity [7] | Activity [8] | Activity [9] | Activity [10] | Activity [11] | Activity (HCT-116 [12]) | Activity (U-937 [13]) | Activity (U-937 [14]) | Activity (HCT-116 [15]) | Activity (U-937 [16]) | Activity (HCT-116 [17]) | Activity (U-937 [19]) [%] | Activity (U-937 [22]) | other results |
| --- | --- | --- | --- | --- | --- | --- | --- | --- | --- | --- | --- | --- | --- | --- | --- | --- | --- | --- | --- | --- | --- |
| O=C(CCCCCN1C(=O)CC(c2cccc3ccccc23)S(=O)(=O)c2ccccc21)NO (racemic) | 77.9 | 80.9 | 99.3 | 378 | ~6 | Active | Active | Active | Active | Active | Active | Active | Active | Active | Active | Active | Active | Active | – | – | – |
| O=C(CCCCCN1C(=O)CC(c2ccc(Cl)c(Cl)c2)Sc2ccccc21)NO (racemic) | 229.2 | – | – | – | – | Active | Active | – | Active | – | Active | Active | Active | Active | – | – | – | – | ~12 | Active | Activity (HCT-116 [18]): Active; Activity (HCT-116 [20]): 22%; Activity (U-937 [21]): Active |
| COc1ccc(C2CC(=O)N(CCCCCC(=O)NO)c3ccccc3S2(=O)=O)cc1 (racemic) | 114.6 | 94.2 | 95.8 | 248 | ~6 | Active | Active | Active | Active | Active | Active | Active | Active | Active | Active | Active | Active | Active | – | – | – |
| O=C(CCCCCN1C(=O)CC(c2cccc(Br)c2)Sc2ccccc21)NO (racemic) | 293.3 | – | – | – | – | Active | Active | – | Active | – | Active | Active | Active | Active | – | – | – | – | ~12 | Active | Activity (HCT-116 [18]): Active; Activity (HCT-116 [20]): 22%; Activity (U-937 [21]): Active |
| O=C(CCCCCCC(=O)Nc1ccccc1)NO [VORINOSTAT] | – | – | – | – | – | – | – | – | – | – | – | – | – | – | – | – | – | – | ~10 | Active | Activity (U-937 [23]): Active; Activity (U-937 [24]): Active; Activity (HCT-116 [25]): Active |
